Measured values reported in patent US9133179B2, “2-methoxy-pyridin-4-yl-derivatives” (Actelion Pharmaceuticals Ltd., priority 2011, dated 2015).

What was measured:
[1] = target: T1, human S1P1 (EDG1) receptor (Homo sapiens, UniProt P21453); test: S1P1 β-arrestin recruitment (Tango) assay to determine EC50 values; assay type: cell-based; conditions: Tango-EDG1 bla U2OS cells, 16 h incubation
T1 construct: host or cells: U2OS (Tango EDG1-bla U2OS)
Description: S1P1 β-Arrestin Recruitment (Tango) Assay to Determine EC50 Values
Upon ligand activation, G protein-coupled receptors (GPCR) trigger two pathways that independently transduce signals to the cell: one through heterotrimeric GTP-binding proteins (G proteins) and one through β-arrestins. Agonist-induced GPCRs recruit β-arrestin proteins, which then bind to the carboxy-terminal domain of ligand-activated GPCRs. The amount of β-arrestin recruitment can be used to assess the potency and efficacy of GPCR activating ligands.
To measure the potency and efficacy of compounds as S1P1 (EDG1) receptor agonists, Tango™-EDG1 bla U2OS cells (Invitrogen, USA, Catalog #K1520) are used. The Tango™ GPCR technology is based on GeneBLAzer β-lactamase reporter cell assays, which uses a mammalian-optimized β-lactamase reporter gene (bla) combined with a FRET-enabled substrate. The host cells, U2OS, stably express a human S1P1 (EDG1) receptor/transcription factor (TF) fusion protein. The cells also express a recombinant protease tagged β-arrestin protein, which is recruited to the S1P1 receptor upon ligand stimulation and specifically cleaves the S1P1-TF fusion protein. The released TF activates the β-lactamase (bla) reporter gene. To measure the reporter gene activity, cells are loaded with a fluorescent substrate containing two chemically coupled fluorophores, coumarin and fluorescein. […] In the presence of bla, the chemical bond is cleaved and FRET is inhibited. […] The amount of β-arrestin recruitment is proportional to the increase in blue fluorescence.
Tango™-EDG1 bla U2OS cells are cultivated in McCoy's 5A containing 10% dialyzed FBS, 0.1 mM NEAA, 25 mM HEPES, 1 mM sodium pyruvate, 1% Penicillin/Streptomycin, 200 μg/ml zeocin, 50 μg/ml hygromycin and 100 μg/ml geneticin (Invitrogen, USA). Cells are detached with trypsin, resuspended in medium and then counted.
Compounds (10 mM stock in DMSO) are diluted first in DMSO. The pre-diluted compounds solutions are then transferred into Assay Medium/0.1% fatty acid free BSA to reach a fourfold concentrated compound stock, which is applied to the cells to reach the final compound concentrations that range from 10 μM to 0.0005 nM (0.5% final DMSO). Cells are then incubated for 16 h at 37° C. and 5% CO2.

circulating lymphocytes = test: Assessment of in vivo efficacy: circulating lymphocytes after oral administration to Wistar rats; design: species or system rat; conditions: Rattus norvegicus, Lymphocyte; 6 h after oral administration of 10 mg/kg, normotensive male Wistar rats, compared to vehicle group; read-out: Lymphocyte counts
Description: Assessment of In Vivo Efficacy
The efficacy of the compounds of Formula (I) is assessed by measuring the circulating lymphocytes after oral administration of 3 to 30 mg/kg of a compound of Formula (I) to normotensive male Wistar rats. The animals are housed in climate-controlled conditions with a 12 h-light/dark cycle, and have free access to normal rat chow and drinking water. […] Full blood is subjected to hematology using Advia Hematology system (Bayer Diagnostics, Zurich, Switzerland).
All data are presented as mean±SEM. Statistical analyses are performed by analysis of variance (ANOVA) using Statistica (StatSoft) and the Student-Newman-Keuls procedure for multiple comparisons. The null hypothesis is rejected when p<0.05.

rat trachea rings = test: Measurement of isometric force development: constriction of rat trachea rings; conditions: for % trachea constriction at 0.3 μM / % trachea constriction at 10 nM / % trachea constriction at 30 nM / % trachea constriction at 3 μM / % trachea constriction at 10 μM / % trachea constriction at 30 μM: in % of the constriction induced by 50 mM KCl; for activation at 0.1 µM / activation at 1 µM: Rattus norvegicus; for activation at 0.1 µM: read-out: % trachea constriction at 0.1 μM; for activation at 1 µM: read-out: % trachea constriction at 1 μM
Description: Measurement of Isometric Force Development
Female Wistar rats are euthanized by exposure to CO2. The tracheae are excised and rings from the lower segments are prepared. […] A resting force of 2 g (20 mN) is applied to the ring preparation, and changes in force generation are measured using an isometric force recorder (EMKA Technologies Inc., Paris, France). Viability of rings is assessed by exposure to a depolarizing concentration of KCl (50 mM). Contraction of trachea is expressed as a percentage of the response to KCl.
The compounds are prepared as stock solutions of 0.3 mM in pure DMSO.

T1 sequence (P21453 whole entry): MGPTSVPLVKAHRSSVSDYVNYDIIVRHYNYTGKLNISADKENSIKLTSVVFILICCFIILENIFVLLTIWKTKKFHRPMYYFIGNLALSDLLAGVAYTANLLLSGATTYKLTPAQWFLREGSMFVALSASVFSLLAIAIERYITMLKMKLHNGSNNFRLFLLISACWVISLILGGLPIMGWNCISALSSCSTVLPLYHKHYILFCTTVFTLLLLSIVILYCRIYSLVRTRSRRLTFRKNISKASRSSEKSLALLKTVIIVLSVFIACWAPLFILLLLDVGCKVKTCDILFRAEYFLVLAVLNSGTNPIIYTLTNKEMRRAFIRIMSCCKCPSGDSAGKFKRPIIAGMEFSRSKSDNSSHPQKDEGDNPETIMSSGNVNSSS

SMILES	EC50 [1]	change in vivo at 10 mg/kg (circulating lymphocytes)	% trachea constriction at 0.3 μM (rat trachea rings)	activation at 0.1 µM (rat trachea rings)	activation at 1 µM (rat trachea rings)	% trachea constriction at 10 nM (rat trachea rings)	% trachea constriction at 30 nM (rat trachea rings)	% trachea constriction at 3 μM (rat trachea rings)	% trachea constriction at 10 μM (rat trachea rings)	% trachea constriction at 30 μM (rat trachea rings)	concentration at which significant (or KCl-comparable) rat trachea constriction is shown (rat trachea rings; rat trachea rings)	concentration at which significant (or full) rat trachea constriction is shown (rat trachea rings; rat trachea rings)
CCc1cc(-c2noc(-c3cc(OC)nc(C4CCCC4)c3)n2)cc(C)c1OCCNCCC(=O)O [Example 1, 3-((2-(4-(5-(2-Cyclopentyl-6-methoxypyridin-4-yl)-1,2,4-oxadiazol-3-yl)-2-ethyl-6-methylphenoxy)ethyl)amino)propanoic acid]	0.04 nM	-69%	53%	< 5%	96%	–	–	–	–	–	–	–
CCc1cc(-c2noc(-c3cc(OC)nc(C4CCCC4)c3)n2)cc(C)c1OCCN1CC(C(=O)O)C1 [Example 2, 1-(2-(4-(5-(2-Cyclopentyl-6-methoxypyridin-4-yl)-1,2,4-oxadiazol-3-yl)-2-ethyl-6-methylphenoxy)ethyl)azetidine-3-carboxylic acid]	0.4 nM	-70%	55%	< 5%	93%	<5%	<5%	–	–	–	–	–
CCc1cc(-c2noc(-c3cc(OC)nc(C4CCCC4)c3)n2)cc(C)c1OC[C@@H](O)CNCCO [Example 3]	8.3 nM	-25%	–	–	< 5%	–	–	<5%	<5%	<5%	–	–
CCc1cc(-c2noc(-c3cc(OC)nc(C4CCCC4)c3)n2)cc(C)c1OC[C@@H](O)CNC(CO)CO [Example 4]	6.6 nM	-65%	–	–	< 5%	–	–	<5%	<5%	<5%	–	–
CCc1cc(-c2noc(-c3cc(OC)nc(C4CCCC4)c3)n2)cc(C)c1OCC(=O)O [Example 5, 2-(4-(5-(2-Cyclopentyl-6-methoxypyridin-4-yl)-1,2,4-oxadiazol-3-yl)-2-ethyl-6-methylphenoxy)acetic acid]	1.6 nM	-35%	84%	66%	124%	<5%	<5%	–	–	–	–	–
CCc1cc(-c2noc(-c3cc(OC)nc(C4CCCC4)c3)n2)cc(C)c1OCCCC(=O)O [Example 6, 4-(4-(5-(2-Cyclopentyl-6-methoxypyridin-4-yl)-1,2,4-oxadiazol-3-yl)-2-ethyl-6-methylphenoxy)butanoic acid]	0.2 nM	-53%	91%	< 5%	110%	<5%	<5%	–	–	–	300 nM	–
CCc1cc(-c2noc(-c3cc(OC)nc(C4CCCC4)c3)n2)cc(C)c1OCCNCC(=O)O [Example 7, 2-((2-(4-(5-(2-Cyclopentyl-6-methoxypyridin-4-yl)-1,2,4-oxadiazol-3-yl)-2-ethyl-6-methylphenoxy)ethyl)amino)acetic acid]	1.5 nM	-70%	<5%	< 5%	68%	<5%	–	–	–	–	–	1000 nM
CCc1cc(-c2noc(-c3cc(OC)nc(C4CCCC4)c3)n2)cc(C)c1OCC(=O)NCCO [Example 13, 2-(4-(5-(2-Cyclopentyl-6-methoxypyridin-4-yl)-1,2,4-oxadiazol-3-yl)-2-ethyl-6-methylphenoxy)-N-(2-hydroxyethyl)acetamide]	2.4 nM	-77%	–	–	< 5%	–	–	–	<5%	–	–	–
CCc1cc(-c2noc(-c3cc(OC)nc(C4CCCC4)c3)n2)cc(C)c1OCCCNC(=O)CCC(=O)O [Example 32, 4-((3-(4-(5-(2-Cyclopentyl-6-methoxypyridin-4-yl)-1,2,4-oxadiazol-3-yl)-2-ethyl-6-methylphenoxy)propyl)amino)-4-oxobutanoic acid]	0.072 nM	-65%	50%	27%	105%	–	–	–	–	–	–	–
COc1cc(-c2nc(-c3cc(Cl)c(OCCCC(=O)O)c(OC)c3)no2)cc(C2CCCC2)n1 [Example 35, 4-(2-Chloro-4-(5-(2-cyclopentyl-6-methoxypyridin-4-yl)-1,2,4-oxadiazol-3-yl)-6-methoxyphenoxy)butanoic acid]	0.627 nM	-71%	–	86%	108%	<5%	<5%	–	–	–	–	–
COc1cc(-c2nc(-c3cc(C)c(OCC(=O)O)c(Cl)c3)no2)cc(C2CCCC2)n1 [Example 41, 2-(2-Chloro-4-(5-(2-cyclopentyl-6-methoxypyridin-4-yl)-1,2,4-oxadiazol-3-yl)-6-methylphenoxy)acetic acid]	1.1 nM	-49%	–	56%	120%	<5%	10%	–	–	–	–	–
COc1cc(-c2nc(-c3cc(C)c(OCCNCCO)c(Cl)c3)no2)cc(C2CCCC2)n1 [Example 45, 2-((2-(2-Chloro-4-(5-(2-cyclopentyl-6-methoxypyridin-4-yl)-1,2,4-oxadiazol-3-yl)-6-methylphenoxy)ethyl)amino)ethanol]	1.7 nM	-72%	–	–	< 5%	–	–	<5%	52%	–	–	10000 nM
CCc1cc(-c2nc(-c3cc(OC)nc(C4CCCC4)c3)no2)cc(C)c1OCCCNCC(=O)O [Example 59, 2-((3-(4-(3-(2-Cyclopentyl-6-methoxypyridin-4-yl)-1,2,4-oxadiazol-5-yl)-2-ethyl-6-methylphenoxy)propyl)amino)acetic acid]	2.7 nM	-82%	–	–	–	–	–	–	–	–	–	–
CCc1cc(-c2nnc(-c3cc(OC)nc(C4CCCC4)c3)o2)cc(C)c1OCC(=O)O [Example 60, 2-(4-(5-(2-Cyclopentyl-6-methoxypyridin-4-yl)-1,3,4-oxadiazol-2-yl)-2-ethyl-6-methylphenoxy)acetic acid]	7.2 nM	-35%	–	–	–	–	–	–	–	–	–	–
CCc1cc(-c2nnc(-c3cc(OC)nc(C4CCCC4)c3)o2)cc(C)c1OCCCC(=O)O [Example 61, 4-(4-(5-(2-Cyclopentyl-6-methoxypyridin-4-yl)-1,3,4-oxadiazol-2-yl)-2-ethyl-6-methylphenoxy)butanoic acid]	0.1 nM	-27%	–	–	–	–	–	–	–	–	–	–
CCc1cc(-c2nnc(-c3cc(OC)nc(C4CCCC4)c3)o2)cc(C)c1OCCNCCC(=O)O [Example 62, 3-((2-(4-(5-(2-Cyclopentyl-6-methoxypyridin-4-yl)-1,3,4-oxadiazol-2-yl)-2-ethyl-6-methylphenoxy)ethyl)amino)propanoic acid]	0.2 nM	-63%	–	–	–	–	–	–	–	–	–	–
CCc1cc(-c2nnc(-c3cc(OC)nc(C4CCCC4)c3)o2)cc(C)c1OCCN1CC(C(=O)O)C1 [Example 63, 1-(2-(4-(5-(2-Cyclopentyl-6-methoxypyridin-4-yl)-1,3,4-oxadiazol-2-yl)-2-ethyl-6-methylphenoxy)ethyl)azetidine-3-carboxylic acid]	1.1 nM	-71%	–	–	–	–	–	–	–	–	–	–
